Among the data in ChEMBL document CHEMBL3400071, “The CERT antagonist HPA-12: first practical synthesis and individual binding evaluation of the four stereoisomers” (Bioorg Med Chem, 2015) are EC50 values, retold here.

Structures are written as SMILES.

The target in the test is T1, Ceramide transfer protein (Homo sapiens, UniProt Q9Y5P4).
T1 sequence (Q9Y5P4 whole entry): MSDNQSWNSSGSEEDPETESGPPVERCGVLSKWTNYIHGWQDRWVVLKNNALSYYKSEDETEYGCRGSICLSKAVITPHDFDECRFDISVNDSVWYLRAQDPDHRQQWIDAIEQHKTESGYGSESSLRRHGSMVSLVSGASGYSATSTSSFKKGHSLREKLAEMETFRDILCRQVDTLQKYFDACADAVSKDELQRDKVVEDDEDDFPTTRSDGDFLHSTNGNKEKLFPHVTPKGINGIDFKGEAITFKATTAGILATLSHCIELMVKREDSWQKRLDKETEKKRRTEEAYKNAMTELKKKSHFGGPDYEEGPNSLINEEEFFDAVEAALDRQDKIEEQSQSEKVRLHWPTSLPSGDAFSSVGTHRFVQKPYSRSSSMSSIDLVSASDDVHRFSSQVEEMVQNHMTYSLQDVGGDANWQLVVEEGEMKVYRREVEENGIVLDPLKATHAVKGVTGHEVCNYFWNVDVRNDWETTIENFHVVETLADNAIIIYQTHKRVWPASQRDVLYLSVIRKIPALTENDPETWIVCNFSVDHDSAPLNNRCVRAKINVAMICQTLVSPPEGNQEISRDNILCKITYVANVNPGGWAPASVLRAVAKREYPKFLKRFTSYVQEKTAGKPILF
Put plainly: Binding affinity to histidine-tagged human recombinant […] containing CERT START domain pre-incubated for 30 mins before biotinylated ceramide probe addition and measured after 18 hrs post probe addition by TR-FRET binding assay. A general note: Time-resolved FRET reads energy transfer from a long-lived donor to a nearby acceptor.
As a reminder, the EC50 is the concentration at which the effect is half-maximal. On to `CCCCCCCCCCCC(=O)N[C@@H](CO)C[C@@H](O)c1ccccc1`, for which the EC50 is 22 µM.

As to `CCCCCCCCCCCC(=O)N[C@H](CO)C[C@H](O)c1ccccc1`, the EC50 was determined as 25 µM.

On to `CCCCCCCCCCCC(=O)N[C@H](CO)C[C@@H](O)c1ccccc1`, for which the EC50 amounted to 159 µM.

Take `CCCCCCCCCCCC(=O)N[C@@H](CO)C[C@H](O)c1ccccc1`: the EC50 came out at 4 µM.
